# In patent publication US20260284018A1, “DUAL INHIBITORS OF DYRK1A AND 5-HT2 FOR TREATING A BRAIN DISORDER” (THE REGENTS OF THE UNIVERSITY OF CALIFORNIA, priority 2023, published 2026):
# Experiments:
# DYRK1A = biological target: T1, DYRK1A (Homo sapiens, UniProt Q13627); test: DYRK1A inhibition (ADP-Glo assay); format: biochemical; details: FIG. 3
# T1 construct: purchased Promega
# Protocol: DYRK1A inhibition. IC50s for all compounds at DYRK1A were determined using an ADP-Glo™ assay kit (Promega) and DYRK1A enzyme system (Promega) following the manufacturer's protocol. In brief, 10 μL of DYRKtide substrate (1 mg/mL) and ATP (50 μM) in kinase reaction buffer (40 mM Tris HCl, 20 mM MgCl2, 0.1 mg/mL BSA, 50 μM DTT in DI water) was added to a solid white 96-well plate. Next, 5 μL of 5× compound solutions in kinase reaction buffer (5% DMSO) or 5% DMSO in kinase reaction buffer was added. Then 10 μL DYRK1A in kinase reaction buffer (2 ng/μL) was added and the plate was incubated at room temperature for 60 min before adding 25 μL ADP-Glo™ reagent. The plate was incubated for 40 min at room temperature. Subsequently, 50 μL of Kinase Detection Reagent was added, the plate was gently shaken for 1 min. and incubated away from light for 30-40 min. Finally, luminescence was measured using a BioTek Synergy HTX multi-mode reader (integration time=1 s). All data was normalized such that the luminescence produced by the lowest concentration treatment of each compound was set to 100% DYRK1A activity.
# [1] = biological target: T2, human recombinant 5-HT2AR (Homo sapiens, UniProt P28223); test: IPOne HTRF assay, 5-HT2AR; format: cell-based; details: for antagonist activity at 5-HT2A, IP-One: antagonist mode
# T2 construct: host or cells: CHO-K1
# Protocol: (§1) IPOne Assays. The 5-HT2AR and 5-HT2CR IPOne HTRF assays were performed at Epics Therapeutics S.A. (Belgium, FAST-0505I) using conventional methods. Briefly, CHO-K1 cells expressing human recombinant 5-HT2AR or 5-HT2CR grown to mid-log phase in culture media without antibiotics were detached with PBS-EDTA, centrifuged, and resuspended in medium without antibiotics buffer. Then, 20,000 cells were distributed in a 96-well plate and incubated overnight at 37° C. with 5% CO2. For agonist testing, the medium was removed and 20 μL of assay buffer plus 20 μL of test compound or reference agonist (α-Me-5-HT) was added to each well. The plate was incubated for 60 min at 37° C. with 5% CO2. For antagonist testing, the medium was removed and 20 μL of assay buffer plus 20 μL of test compound or reference antagonist (ketanserin) was added to each well. The plate was incubated for 60 min at 37° C. with 5% CO2. After addition of the lysis buffer containing IP1-d2 and anti-IP1 cryptate detection reagents, plates were incubated for 1 h at room temperature and fluorescence ratios were measured according to the manufacturer's specifications using the HTRF kit.
# [2] = biological target: T3, human recombinant 5-HT2CR (Homo sapiens, UniProt P28335); test: IPOne HTRF assay, 5-HT2CR; format: cell-based; details: for antagonist activity at 5-HT2C, IP-One / selectivity of antagonism, 5-HT2C versus 5-HT2A, IP-One: antagonist mode
# T3 construct: host or cells: CHO-K1
# T3 sequence (P28335 33-458): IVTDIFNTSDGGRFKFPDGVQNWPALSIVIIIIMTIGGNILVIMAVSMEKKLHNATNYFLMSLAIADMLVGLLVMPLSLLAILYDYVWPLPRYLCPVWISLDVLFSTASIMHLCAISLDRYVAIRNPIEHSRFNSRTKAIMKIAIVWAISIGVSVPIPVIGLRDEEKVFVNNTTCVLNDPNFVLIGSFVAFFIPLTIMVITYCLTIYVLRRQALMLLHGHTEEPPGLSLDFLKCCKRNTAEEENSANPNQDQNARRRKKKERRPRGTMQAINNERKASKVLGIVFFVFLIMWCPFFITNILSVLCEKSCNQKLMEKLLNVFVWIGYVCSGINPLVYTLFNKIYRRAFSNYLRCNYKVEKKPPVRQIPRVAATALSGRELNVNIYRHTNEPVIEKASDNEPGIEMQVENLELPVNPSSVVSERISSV
# Protocol: as §1
# C57BL/6J mice = test: Locomotion in open field chamber; format: in vivo; details: doses up to 30 mg/kg
# Protocol: Animals. Female C57BL/6J mice used in the head twitch response and locomotion assays, and Sprague Dawley dams used to generate embryonic cultures were obtained from Jackson Laboratory (Sacramento, CA). Mice were housed in a temperature- and humidity-controlled room maintained on a 12 h light/dark cycle in groups of four to five (same sex). Animals weighed between 17 and 30 g at the time of the experiments. All experimental procedures involving rodents were approved by the UC Davis Institutional Animal Care and Use Committee (IACUC) and adhered to principles described in the National Institutes of Health Guide for the Care and Use of Laboratory Animals. The University of California, Davis is accredited by the Association for Assessment and Accreditation of Laboratory Animal Care International (AAALAC).
# Head-Twitch Response and Locomotion. Mice (9-10 weeks old) were injected intraperitoneally with compounds dissolved in 10% Kolliphor® EL (Sigma) and 10% DMSO in 0.9% saline (injection volume 5 mL/kg) or vehicle, placed in an empty cage, and filmed for 10 min. Locomotion was quantified using ANYmaze Video Tracking System, version 7.07 (Stoelting Co.). […] The last 20 min of each video were scored by one trained observer blinded to the treatment conditions.
# EGFR(L858R) = biological target: T4, EGFR(L858R) (Homo sapiens, UniProt P00533, L858R); details: 10 μM; cited from earlier work
# T4 construct: purchased Eurofins DiscoverX
# FAK = biological target: T5, FAK (Homo sapiens, UniProt Q05397); details: 10 μM; cited from earlier work
# T5 construct: purchased Eurofins DiscoverX
# FGFR2 = biological target: T6, FGFR2 (Homo sapiens, UniProt P21802); details: 10 μM; cited from earlier work
# T6 construct: purchased Eurofins DiscoverX
# GSK3B = biological target: T7, GSK3B (Homo sapiens, UniProt P49841); details: 10 μM; cited from earlier work
# T7 construct: purchased Eurofins DiscoverX
# p38-alpha = biological target: T8, p38-alpha (Homo sapiens, UniProt Q16539); details: 10 μM; cited from earlier work
# T8 construct: purchased Eurofins DiscoverX (KINOMEscan scanEDGE service)
# p38-beta = biological target: T9, p38-beta (Homo sapiens, UniProt Q15759); details: 10 μM; cited from earlier work
# T9 construct: purchased Eurofins DiscoverX (KINOMEscan scanEDGE service)
# PLK4 = biological target: T10, PLK4 (Homo sapiens, UniProt O00444); details: 10 μM; cited from earlier work
# T10 construct: purchased Eurofins DiscoverX KINOMEscan scanEDGE
# RIOK2 = biological target: T11, RIOK2 (Homo sapiens, UniProt Q9BVS4); details: 10 μM; cited from earlier work
# T11 construct: purchased Eurofins DiscoverX KINOMEscan scanEDGE
# VEGFR2 = biological target: T12, VEGFR2 (Homo sapiens, UniProt P35968); details: 10 μM; cited from earlier work
# T12 construct: purchased Eurofins DiscoverX KINOMEscan scanEDGE
# T2 sequence (P28223 whole entry): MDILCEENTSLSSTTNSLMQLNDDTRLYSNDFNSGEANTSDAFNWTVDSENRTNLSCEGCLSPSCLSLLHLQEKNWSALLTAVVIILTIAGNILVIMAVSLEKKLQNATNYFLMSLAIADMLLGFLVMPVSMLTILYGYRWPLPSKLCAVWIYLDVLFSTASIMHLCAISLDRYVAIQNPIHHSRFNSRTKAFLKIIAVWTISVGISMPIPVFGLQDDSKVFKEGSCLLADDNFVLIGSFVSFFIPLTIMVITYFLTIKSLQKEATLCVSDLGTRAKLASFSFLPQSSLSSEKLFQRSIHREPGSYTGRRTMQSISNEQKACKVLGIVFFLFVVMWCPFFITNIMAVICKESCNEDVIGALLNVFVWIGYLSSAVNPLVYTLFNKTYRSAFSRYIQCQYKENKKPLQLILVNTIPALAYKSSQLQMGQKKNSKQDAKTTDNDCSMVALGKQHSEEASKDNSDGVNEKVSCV
# T5 sequence (Q05397 whole entry): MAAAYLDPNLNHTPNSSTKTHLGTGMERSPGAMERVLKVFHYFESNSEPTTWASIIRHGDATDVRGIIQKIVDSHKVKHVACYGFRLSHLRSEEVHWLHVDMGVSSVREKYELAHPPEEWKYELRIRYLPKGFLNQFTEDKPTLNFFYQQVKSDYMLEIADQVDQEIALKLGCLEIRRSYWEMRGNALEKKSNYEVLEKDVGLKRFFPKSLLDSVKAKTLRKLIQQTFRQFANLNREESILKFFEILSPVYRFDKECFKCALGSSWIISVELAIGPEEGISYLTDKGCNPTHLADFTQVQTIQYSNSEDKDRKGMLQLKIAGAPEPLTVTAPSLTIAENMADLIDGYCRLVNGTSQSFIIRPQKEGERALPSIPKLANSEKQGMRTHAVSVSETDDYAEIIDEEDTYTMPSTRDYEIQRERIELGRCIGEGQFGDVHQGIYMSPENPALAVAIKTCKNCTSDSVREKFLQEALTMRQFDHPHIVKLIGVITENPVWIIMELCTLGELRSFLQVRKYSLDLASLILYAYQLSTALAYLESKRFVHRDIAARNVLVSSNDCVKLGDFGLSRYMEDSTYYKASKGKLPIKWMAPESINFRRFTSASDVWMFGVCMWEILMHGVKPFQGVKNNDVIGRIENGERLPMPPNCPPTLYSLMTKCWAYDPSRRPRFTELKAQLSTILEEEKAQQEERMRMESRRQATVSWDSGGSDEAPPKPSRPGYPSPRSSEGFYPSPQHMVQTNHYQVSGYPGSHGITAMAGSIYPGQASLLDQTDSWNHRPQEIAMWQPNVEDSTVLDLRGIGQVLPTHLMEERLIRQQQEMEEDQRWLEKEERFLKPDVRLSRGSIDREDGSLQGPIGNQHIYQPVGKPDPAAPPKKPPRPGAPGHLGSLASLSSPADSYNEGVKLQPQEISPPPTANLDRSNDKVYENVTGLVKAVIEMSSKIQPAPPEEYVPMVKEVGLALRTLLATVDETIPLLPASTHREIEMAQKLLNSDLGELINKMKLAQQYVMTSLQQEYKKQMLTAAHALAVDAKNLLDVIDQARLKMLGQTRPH
# T11 sequence (Q9BVS4 whole entry): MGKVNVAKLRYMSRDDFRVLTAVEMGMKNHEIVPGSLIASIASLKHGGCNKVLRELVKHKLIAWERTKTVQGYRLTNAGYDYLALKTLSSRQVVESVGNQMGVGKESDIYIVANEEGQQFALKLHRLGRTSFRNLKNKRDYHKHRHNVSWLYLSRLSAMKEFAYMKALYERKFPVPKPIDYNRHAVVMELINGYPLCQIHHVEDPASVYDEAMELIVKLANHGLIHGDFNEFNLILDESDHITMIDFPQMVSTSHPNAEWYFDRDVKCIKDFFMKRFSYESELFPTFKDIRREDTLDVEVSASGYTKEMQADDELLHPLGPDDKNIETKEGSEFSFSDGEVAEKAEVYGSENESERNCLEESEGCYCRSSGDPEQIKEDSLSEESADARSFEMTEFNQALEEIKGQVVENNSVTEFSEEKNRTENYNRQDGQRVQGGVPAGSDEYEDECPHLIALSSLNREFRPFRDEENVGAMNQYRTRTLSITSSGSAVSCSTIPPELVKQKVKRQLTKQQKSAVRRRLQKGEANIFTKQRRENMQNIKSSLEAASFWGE
# T10 sequence (O00444 whole entry): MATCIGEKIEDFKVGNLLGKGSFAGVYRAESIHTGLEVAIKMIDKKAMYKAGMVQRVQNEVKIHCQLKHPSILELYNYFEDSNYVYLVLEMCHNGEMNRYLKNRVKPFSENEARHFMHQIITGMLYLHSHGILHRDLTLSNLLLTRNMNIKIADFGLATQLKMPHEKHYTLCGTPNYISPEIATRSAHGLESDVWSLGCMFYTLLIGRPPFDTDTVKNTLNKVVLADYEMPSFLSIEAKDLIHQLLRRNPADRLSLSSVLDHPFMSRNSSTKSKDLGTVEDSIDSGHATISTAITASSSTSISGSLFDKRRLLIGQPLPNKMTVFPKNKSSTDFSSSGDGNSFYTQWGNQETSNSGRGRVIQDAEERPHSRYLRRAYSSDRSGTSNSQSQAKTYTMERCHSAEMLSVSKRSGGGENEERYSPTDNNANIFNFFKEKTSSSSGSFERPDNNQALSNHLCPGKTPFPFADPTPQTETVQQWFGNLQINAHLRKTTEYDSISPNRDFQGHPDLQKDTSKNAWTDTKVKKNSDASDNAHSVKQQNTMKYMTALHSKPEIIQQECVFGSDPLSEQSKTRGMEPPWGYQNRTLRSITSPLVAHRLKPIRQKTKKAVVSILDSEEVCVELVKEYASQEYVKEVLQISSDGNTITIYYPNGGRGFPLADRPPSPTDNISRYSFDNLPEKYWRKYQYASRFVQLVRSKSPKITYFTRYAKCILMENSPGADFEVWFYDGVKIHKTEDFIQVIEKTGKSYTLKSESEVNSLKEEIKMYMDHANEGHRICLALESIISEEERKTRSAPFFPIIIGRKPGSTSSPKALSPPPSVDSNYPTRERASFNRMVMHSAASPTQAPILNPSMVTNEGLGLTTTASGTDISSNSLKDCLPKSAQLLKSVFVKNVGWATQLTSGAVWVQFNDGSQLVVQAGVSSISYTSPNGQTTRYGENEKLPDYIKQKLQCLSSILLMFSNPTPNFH
# T8 sequence (Q16539 whole entry): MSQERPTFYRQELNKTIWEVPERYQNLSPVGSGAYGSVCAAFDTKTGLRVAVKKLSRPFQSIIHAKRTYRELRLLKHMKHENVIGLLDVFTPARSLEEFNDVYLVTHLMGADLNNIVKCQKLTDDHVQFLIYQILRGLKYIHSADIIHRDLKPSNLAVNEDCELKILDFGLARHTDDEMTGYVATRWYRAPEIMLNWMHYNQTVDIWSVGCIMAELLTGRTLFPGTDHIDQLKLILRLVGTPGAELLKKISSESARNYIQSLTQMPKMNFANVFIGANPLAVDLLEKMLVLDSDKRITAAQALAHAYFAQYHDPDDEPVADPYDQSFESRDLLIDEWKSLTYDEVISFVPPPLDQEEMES
# T6 sequence (P21802 22-821): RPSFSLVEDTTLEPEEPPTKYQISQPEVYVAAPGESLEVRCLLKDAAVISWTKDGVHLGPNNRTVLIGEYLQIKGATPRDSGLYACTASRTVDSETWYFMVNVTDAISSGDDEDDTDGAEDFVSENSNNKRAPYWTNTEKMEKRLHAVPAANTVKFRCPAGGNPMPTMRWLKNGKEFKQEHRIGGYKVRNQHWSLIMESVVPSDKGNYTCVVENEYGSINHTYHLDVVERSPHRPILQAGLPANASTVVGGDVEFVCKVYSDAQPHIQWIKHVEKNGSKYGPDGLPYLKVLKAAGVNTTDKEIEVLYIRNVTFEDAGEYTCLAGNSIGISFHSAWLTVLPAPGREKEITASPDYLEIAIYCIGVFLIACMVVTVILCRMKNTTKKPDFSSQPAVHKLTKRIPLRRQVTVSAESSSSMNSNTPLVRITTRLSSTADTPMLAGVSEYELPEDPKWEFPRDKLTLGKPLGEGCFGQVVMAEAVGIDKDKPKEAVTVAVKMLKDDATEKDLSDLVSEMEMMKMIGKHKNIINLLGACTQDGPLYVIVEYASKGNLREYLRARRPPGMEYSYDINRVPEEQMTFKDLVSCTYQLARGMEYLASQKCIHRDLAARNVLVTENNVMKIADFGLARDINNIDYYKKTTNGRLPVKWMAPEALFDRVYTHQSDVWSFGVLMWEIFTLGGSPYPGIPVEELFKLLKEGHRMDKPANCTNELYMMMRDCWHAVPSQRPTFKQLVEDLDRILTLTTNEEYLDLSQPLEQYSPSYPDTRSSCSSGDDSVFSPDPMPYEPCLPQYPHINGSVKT
# T7 sequence (P49841 whole entry): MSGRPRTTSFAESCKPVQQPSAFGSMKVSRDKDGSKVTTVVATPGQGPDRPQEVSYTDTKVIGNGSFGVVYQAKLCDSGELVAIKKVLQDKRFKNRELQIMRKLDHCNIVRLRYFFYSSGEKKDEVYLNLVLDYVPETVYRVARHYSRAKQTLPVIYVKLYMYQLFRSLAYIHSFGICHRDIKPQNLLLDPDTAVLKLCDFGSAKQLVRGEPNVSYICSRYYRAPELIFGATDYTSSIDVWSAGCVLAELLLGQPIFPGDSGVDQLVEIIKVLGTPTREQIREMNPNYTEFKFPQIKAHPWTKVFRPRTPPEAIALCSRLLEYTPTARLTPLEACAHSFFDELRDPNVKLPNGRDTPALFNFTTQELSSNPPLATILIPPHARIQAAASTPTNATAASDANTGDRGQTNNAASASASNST
# T9 sequence (Q15759 whole entry): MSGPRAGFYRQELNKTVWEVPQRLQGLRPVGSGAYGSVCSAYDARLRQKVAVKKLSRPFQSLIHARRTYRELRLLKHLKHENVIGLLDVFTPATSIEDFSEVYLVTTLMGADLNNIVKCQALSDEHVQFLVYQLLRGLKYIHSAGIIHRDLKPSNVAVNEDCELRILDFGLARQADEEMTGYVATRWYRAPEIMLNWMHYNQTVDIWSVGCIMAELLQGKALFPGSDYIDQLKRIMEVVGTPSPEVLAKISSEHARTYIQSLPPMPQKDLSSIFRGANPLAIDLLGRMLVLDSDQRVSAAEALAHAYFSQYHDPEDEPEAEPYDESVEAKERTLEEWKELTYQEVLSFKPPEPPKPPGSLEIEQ
Compound,inhibition of DYRK1A activity (DYRK1A),"activation of 5-HT2A, IP-One agonist mode [1]","antagonist activity at 5-HT2A, IP-One [1]","activation of 5-HT2C, IP-One agonist mode [2]","antagonist activity at 5-HT2C, IP-One [2]","selectivity of antagonism, 5-HT2C versus 5-HT2A, IP-One [2]",total distance traveled in open field chamber (C57BL/6J mice),Percent Control (EGFR(L858R)),Percent Control (FAK),Percent Control (FGFR2),Percent Control (GSK3B),Percent Control (p38-alpha),Percent Control (p38-beta),Percent Control (PLK4),Percent Control (RIOK2),Percent Control (VEGFR2)
"COc1ccc2c3ccnc(C)c3n(CCN(C)C)c2c1.O=C(O)/C=C/C(=O)O [HTW_A_8 fumarate, 2-(7-methoxy-1-methyl-9H-pyrido[3,4-b]indol-9-yl)-N,N-dimethylethan-1-amine Fumarate Salt (2:3)]",able to inhibit DYRK1A activity,no activation,antagonist activity,no activation,antagonist activity,moderate selectivity for antagonism of 5-HT2C,do not significantly affect the total distance traveled,–,–,–,–,–,–,–,–,–
"COc1ccc2c(c1)N(CCN(C)C)/C(=C/C(C)=O)S2.O=C(O)/C=C/C(=O)O [HTW_B_14 fumarate, (Z)-1-(3-(2-(dimethylamino)ethyl)-5-methoxybenzo[d]thiazol-2(3H)-ylidene)propan-2-one Fumarate Salt (1:1)]",able to inhibit DYRK1A activity,no activation,antagonist activity,no activation,antagonist activity,moderate selectivity for antagonism of 5-HT2C,do not significantly affect the total distance traveled,–,–,–,–,–,–,–,–,–
"COc1ccc2c(c1)[nH]c1c(C)nccc12 [Harmine, harmine]",–,–,–,–,–,–,–,81%,100%,91%,71%,95%,85%,77%,74%,78%
